Measurements reported in paper PMC9820430, “New Affordable Methods for Large-Scale Isolation of Major Olive Secoiridoids and Systematic Comparative Study of Their Antiproliferative/Cytotoxic Effect on Multiple Cancer Cell Lines of Different Cancer Origins” (International Journal of Molecular Sciences, 2022).

How the values were obtained:
A2058 = assay: EdU incorporation cell proliferation assay, 24 h; assay type: cell-based, human; conditions: for % EdU +ve ± SE (S-phase cells): 24 h treatment at EC50 concentration
Description: For this purpose, ten cancer cell lines (i.e., MDA-MB 231, SK-BR-3, MCF-7, A2058, SK-MEL-28, AGS, HepG-2, PANC-1, H1299 and Hela) originating from breast, melanoma, stomach, hepatic, pancreatic, lung and cervical tumors were analyzed in parallel with control samples (i.e., the same cells treated only with 0.2% (v/v) DMSO). […] Subsequently, the treated cells were allowed to incorporate 5-ethynyl-2′-deoxyuridine (EdU) into replicating DNA according to the protocol described in detail in the Experimental Section. EdU, a thymidine analog, can be incorporated into DNA in vivo and detected later by using copper-catalyzed azide–alkyne cycloaddition (click reaction) without prior DNA denaturation. The pool of cells in the S phase can be then easily detected by fluorescence (FL) microscopy or by flow cytometry by analyzing the incorporation of EdU in replicating DNA of single cells. In this study, after EdU incorporation, the nuclei of the entire cell population were stained with Hoechst and imaged by confocal microscopy (Experimental Section). EdU-positive nuclei, marked by green FL, as well as the total number of nuclei, marked by blue FL, were enumerated by applying the Icy image analysis algorithm on the digital images acquired by confocal microscopy.
Human cancer cells were plated onto sterile glass coverslips (10-mm diameter, 5161063, ThermoFisher Scientific, Waltham, MA, USA) in 24-well tissue culture plates, at a density 5 times the density of cells seeded in 96-well plate and at a final medium volume of 500 μL. In order to obtain homogeneous plating, 250 μL of the medium was added directly to the wells already containing coverslips. Using a tip perpendicularly, coverslips were pressed in order to ensure their attachment to the bottom of the well. The cells were then seeded by adding 250 μL of single-cell suspension drop by drop following a cross path. Immediately after seeding, the plate was shaken back and forth at least ten times to achieve homogeneous plating. The cells were allowed to adhere overnight (~16 h) at 37 °C and 5% (v/v) CO2. The next day, a volume of 500 μL fresh medium was added to each well and the treatment with OOPs was initiated by adding directly to the wells 2 μL of OOPs from the 500× stock in DMSO and immediately mixed afterward by pipetting. […] Control cells were prepared under the same experimental conditions using DMSO instead of the OOPs’ solutions in DMSO at the same final concentration (0.2% (v/v) DMSO). […] Each condition was performed in duplicate. After treatment with the OOPs, live proliferating mammalian cells were labeled with 5-ethynyl-2’-deoxyuridine (EdU), a nucleoside analog of thymidine, using the Cell proliferation kit III (EdU-FM, PK-CA724-488FM, Promokine, Heidelberg, Germany). More specifically, a 20 μM EdU solution from a 10 mM stock in DMSO was prepared in a fresh culture medium. Culture supernatant was removed from treated cells to leave only 250 μL. An equal volume of 20 μM EdU solution was added and mixed with the medium to obtain a 10 μΜ EdU final concentration. The treated cells were incubated for the desired time of pulse length (2–4 h) under conditions optimal for each cell type depending on each cell line’s doubling time. Following incubation, cells were washed twice with PBS, then fixed with 4% (w/v) paraformaldehyde in PBS for 15 min at room temperature (RT), and subsequently washed twice with 3% (w/v) BSA for 5 min each time. Cells were permeabilized by incubation (20 min, RT, in the dark) with 0.5% (v/v) Triton-X 100 in PBS. Following permeabilization the cells were washed twice with 3% (w/v) BSA in PBS and incubated for 30 min with the reaction cocktail, according to the instructions of the Cell proliferation kit III (EdU-488; FM). After staining for replicating DNA, the cells were washed three times with 3% (w/v) BSA in PBS, and were then incubated (10 min, at RT) with Hoechst 33342 in PBS (1:10.000) to visualize all the nuclei. […]

A375 cells = tested on: A375 cells; design: method as in PMID 35630786; conditions: 72 h treatment; cited from earlier work

C/C=C(/C=O)[C@@H](CC=O)CC(=O)OCCc1ccc(O)cc1 [compound 1, oleocanthal]
% EdU +ve ± SE (S-phase cells) (A2058): 25.5 ± 5.3% | EC50 (A375 cells): 67.5 ± 1.9 µM

COC(=O)C1=COC(C)[C@@H](C=O)[C@@H]1CC(=O)OCCc1ccc(O)c(O)c1 (mixture of isomers) [3a,b, oleuropein aglycone]
% Inhibition ± SE of cell proliferation (A2058; 24 h at EC50, normalized with the control): 15.0 ± 10.3% | % EdU +ve ± SE (S-phase cells) (A2058): 23.7 ± 5.8%

C/C=C(/C=O)[C@@H](CC=O)CC(=O)OCCc1ccc(O)c(O)c1 [compound 2, oleacein]
EC50 (A375 cells): 113 ± 4.9 µM
